# Laboratory results from patent US7192952B2, “Heterocyclic compounds that are inhibitors of the enzyme DPP-IV” (Novo Nordisk, A/S, priority 2001, dated 2007).
# Structures can show the parent of a compound that is named as a salt.
row,melting point [°C],Structure (SMILES)
1,104 to 117,"Cn1c(=O)c2c(nc(N3CC[C@H](N)C3)n2Cc2ccccc2C#N)n(C)c1=O (as salt: HCl) [Example 8, (S) 2-(8-(3-Aminopyrrolidin-1-yl)-1,3-dimethyl-2,6-dioxo-1,2,3,6-tetrahydropurin-7-ylmethyl)benzonitrile]"
2,166 to 169,"Cn1c(=O)c2c(nc(N3CC[C@H](N)C3)n2Cc2ccccc2)n(C)c1=O (as salt: HCl) [Example 3, (S) 8-(3-Aminopyrrolidin-1-yl)-7-benzyl-1,3-dimethyl-3,7-dihydropurine-2,6-dione]"
3,215 to 217,"Cn1c(=O)c2c(nc(N3CC[C@H](N)C3)n2Cc2ccccc2Br)n(C)c1=O (as salt: HCl) [Example 12, (S) 8-(3-Aminopyrrolidin-1-yl)-7-(2-bromobenzyl)-1,3-dimethyl-3,7-dihydropurine-2,6-dione]"
